Results: patent publication US7851474B2, “Dipiperazinyl ketones and related analogues” (Neurogen Corporation, priority 2005, dated 2010)

target: T1, chimeric human H3 receptor (Homo sapiens, UniProt Q9Y5N1, E19D); assay: Chimeric human H3 receptor GTP binding assay (agonist-stimulated GTP-gamma35S binding, Example 7); type: biochemical; settings: not given
T1 construct: made in house; host or cells: Sf9 insect cells (baculovirus infection); P2 membrane preparation
Method in brief: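 IC50 values come from non-linear regression of dose-response curves of filter-bound GTP-gamma^35S, counted by scintillation. Membranes were from infected Sf9 cells carrying receptor plus G-protein subunits, 35 μg/tube, with 10 μM GDP present.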

T1 sequence (Q9Y5N1 with tags, fused parts or gaps E19D): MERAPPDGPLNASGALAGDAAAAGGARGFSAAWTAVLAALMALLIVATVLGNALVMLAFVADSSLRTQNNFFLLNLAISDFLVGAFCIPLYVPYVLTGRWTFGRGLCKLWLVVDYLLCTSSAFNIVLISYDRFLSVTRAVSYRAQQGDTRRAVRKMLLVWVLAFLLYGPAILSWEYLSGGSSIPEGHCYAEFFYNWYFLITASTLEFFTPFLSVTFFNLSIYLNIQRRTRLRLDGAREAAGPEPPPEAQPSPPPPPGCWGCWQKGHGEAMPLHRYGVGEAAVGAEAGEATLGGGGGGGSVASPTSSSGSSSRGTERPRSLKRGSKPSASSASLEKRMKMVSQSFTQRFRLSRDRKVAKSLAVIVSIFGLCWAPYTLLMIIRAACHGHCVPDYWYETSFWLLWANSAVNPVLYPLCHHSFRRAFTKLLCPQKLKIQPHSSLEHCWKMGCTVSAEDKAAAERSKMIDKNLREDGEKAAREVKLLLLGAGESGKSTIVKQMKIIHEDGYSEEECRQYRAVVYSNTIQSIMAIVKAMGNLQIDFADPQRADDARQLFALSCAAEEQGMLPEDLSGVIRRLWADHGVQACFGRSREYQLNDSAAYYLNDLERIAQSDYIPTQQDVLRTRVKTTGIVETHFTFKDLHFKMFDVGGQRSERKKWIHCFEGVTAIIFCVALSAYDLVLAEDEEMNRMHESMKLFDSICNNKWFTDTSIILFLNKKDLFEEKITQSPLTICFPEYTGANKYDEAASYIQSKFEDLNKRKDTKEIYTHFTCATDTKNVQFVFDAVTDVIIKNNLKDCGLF

| Structure (SMILES) | Ki |
| --- | --- |
| O=C(CN1CCN(c2ccc(C(F)(F)F)cc2)CC1)N1CCN(C2CCCCC2)CC1 [Compound 803, 1-cyclohexyl-4-({4-[4-(trifluoromethyl)phenyl]piperazin-1-yl}acetyl)piperazine] | < 1 µM |

same assay, conditions: "*" in Ki of Table II; assay of Example 7; read-out: Ki

| Ki | Structure (SMILES) |
| --- | --- |
| < 1 µM | CCC(C)N1CCN(C(=O)CN2CCC(N3CCCCCC3)CC2)CC1 (stereo not shown) [Compound 481, 1-{1-[2-(4-sec-butylpiperazin-1-yl)-2-oxoethyl]piperidin-4-yl}azepane] |
| < 1 µM | O=C(CN1CCN(c2ccc(-c3cc(C(F)(F)F)ccc3Cl)cc2)CC1)N1CCN(C2CCC2)CC1 [Compound 453, 1-[2′-chloro-5′-(trifluoromethyl)biphenyl-4-yl]-4-[2-(4-cyclobutylpiperazin-1-yl)-2-oxoethyl]piperazine] |
| < 1 µM | O=C(CN1CCC(N2CCCCCC2)CC1)N1CCN(C2CCCCC2)CC1 [Compound 480, 1-{1-[2-(4-cyclohexylpiperazin-1-yl)-2-oxoethyl]piperidin-4-yl}azepane] |

same assay, conditions: Table II "Ki", symbol "*": Ki in the assay of Example 7; read-out: Ki

| Ki | Structure (SMILES) |
| --- | --- |
| < 1 µM | O=C(CN1CCN(c2cnc(-c3ccncc3)cn2)CC1)N1CCN(C2CCC2)CC1 [Compound 917, 2-{4-[2-(4-cyclobutylpiperazin-1-yl)-2-oxoethyl]piperazin-1-yl}-5-pyridin-4-ylpyrazine] |
| < 1 µM | Cc1ccc(N2CCN(CC(=O)N3CCN(C(C)C)CC3)CC2)cc1 [Compound 850, 1-isopropyl-4-{[4-(4-methylphenyl)piperazin-1-yl]acetyl}piperazine] |
| < 1 µM | CC(C)c1ccc(-c2ccc(N3CCN(CC(=O)N4CCN(C5CCC5)CC4)CC3)cc2)cc1 [Compound 778, 1-cyclobutyl-4-{[4-(4′-isopropylbiphenyl-4-yl)piperazin-1-yl]acetyl}piperazine] |
| < 1 µM | O=C(CN1CCN(c2cnc(-c3cccc(Cl)c3)cn2)CC1)N1CCN(C2CCC2)CC1 [Compound 900, 2-(3-chlorophenyl)-5-{4-[2-(4-cyclobutylpiperazin-1-yl)-2-oxoethyl]piperazin-1-yl}pyrazine] |
| < 1 µM | CSc1cccc(-c2cnc(N3CCN(CC(=O)N4CCN(C5CCC5)CC4)CC3)cn2)c1 [Compound 938, 2-{4-[2-(4-cyclobutylpiperazin-1-yl)-2-oxoethyl]piperazin-1-yl}-5-[3-(methylthio)phenyl] pyrazine] |

same assay, conditions: Table II, "*" in Ki; assay of Example 7; read-out: Ki

| Ki | Structure (SMILES) |
| --- | --- |
| < 1 µM | CC(Oc1ccccc1)C(=O)N1CCN(CC(=O)N2CCN(C3CCC3)CC2)CC1 (stereo not shown) [Compound 720, 1-cyclobutyl-4-{[4-(2-phenoxypropanoyl)piperazin-1-yl]acetyl}piperazine] |
| < 1 µM | O=C(CN1CCN(c2ccc(C(=O)N3CC=CCC3)cn2)CC1)N1CCN(C2CCC2)CC1 [Compound 609, 1-cyclobutyl-4-({4-[5-(3,6-dihydropyridin-1(2H)-ylcarbonyl)pyridin-2-yl]piperazin-1-yl}acetyl)piperazine] |
| < 1 µM | O=C(CN1CCN(c2ccc(C(=O)N3CCCCC3)cc2)CC1)N1CCN(C2CCC2)CC1 [Compound 601, 1-cyclobutyl-4-({40[4-(piperidin-1-ylcarbonyl)phenyl]piperazin-1-yl}acetyl)piperazine] |
| < 1 µM | Cc1ccc(N2CCN(CC(=O)N3CCN(C4CCC4)CC3)CC2)cc1C [Compound 736, 1-cyclobutyl-4-{[4-(3,4-dimethylphenyl)piperazin-1-yl]acetyl}piperazine] |
| < 1 µM | COC[C@@H]1CCCN1C(=O)c1cccc(N2CCN(CC(=O)N3CCN(C4CCC4)CC3)CC2)c1 [Compound 745, 1-cyclobutyl-4-{[4-(3-{[(2S)-2-(methoxymethyl)pyrrolidin-1-yl]car-bonyl}phenyl)piperazin-1-yl]acetyl}piperazine] |
| < 1 µM | COc1cccc(N2CCN(CC(=O)N3CCN(C4CCC4)CC3)CC2)c1 [Compound 759, 1-cyclobutyl-4-{[4-(3-methoxyphenyl)piperazin-1-yl]acetyl}piperazine] |

same assay, conditions: Table II; assay of Example 7; "*" in Ki; read-out: Ki

| Ki | Structure (SMILES) |
| --- | --- |
| < 1 µM | CCC(C)N1CCN(C(=O)CN2CCC(N3CCOCC3)CC2)CC1 (stereo not shown) [Compound 1116, 4-{1-[2-(4-sec-butylpiperazin-1-yl)-2-oxoethyl]piperidin-4-yl}morpholine] |
| < 1 µM | O=C(NCC(F)(F)F)c1ccc(N2CCN(CC(=O)N3CCN(C4CCC4)CC3)CC2)cc1 [Compound 1137, 4-{4-[2-(4-cyclobutylpiperazin-1-yl)-2-oxoethyl]piperazin-1-yl}-N-(2,2,2-trifluoroethyl)benzamide] |
| < 1 µM | O=C(CN1CCN(c2ccc(-c3ccc(Cl)c(Cl)c3)nn2)CC1)N1CCN(C2CCC2)CC1 [Compound 1051, 3-{4-[2-(4-cyclobutylpiperazin-1-yl)-2-oxoethyl]piperazin-1-yl}-6-(3,4-dichlorophenyl)pyridazine] |
| < 1 µM | CCCc1ccc(-c2ccc(N3CCN(CC(=O)N4CCN(C5CCC5)CC4)CC3)nn2)cc1 [Compound 1018, 3-{4-[2-(4-cyclobutylpiperazin-1-yl)-2-oxoethyl]piperazin-1-yl}-6-(4-propylphenyl)pyridazine] |
| < 1 µM | COCCN(C(=O)c1ccc(N2CCN(CC(=O)N3CCN(C4CCC4)CC3)CC2)cc1)C(C)C [Compound 1130, 4-{4-[2-(4-cyclobutylpiperazin-1-yl)-2-oxoethyl]piperazin-1-yl}-N-isopropyl-N-(2-methoxyethyl)benzamide] |
| < 1 µM | O=C(CN1CCN(c2ccc(-c3cc(Cl)cc(Cl)c3)nn2)CC1)N1CCN(C2CCC2)CC1 [Compound 1050, 3-{4-[2-(4-cyclobutylpiperazin-1-yl)-2-oxoethyl]piperazin-1-yl}-6-(3,5-dichlorophenyl)pyridazine] |
| < 1 µM | Cc1ccc(N2CCN(CC(=O)N3CCN(C4CCC4)CC3)CC2C)cc1 (stereo not shown) [Compound 1105, 4-[2-(4-cyclobutylpiperazin-1-yl)-2-oxoethyl]-2-methyl-1-(4-methylphenyl)piperazine] |
| < 1 µM | N#Cc1ccc(-c2ccc(N3CCN(CC(=O)N4CCN(C5CCC5)CC4)CC3)nn2)cc1 [Compound 1100, 4-(6-{4-[2-(4-cyclobutylpiperazin-1-yl)-2-oxoethyl]piperazin-1-yl}pyridazin-3-yl)benzonitrile] |

same assay, conditions: assay of Example 7; "*" in Ki of Table II; read-out: Ki

| Ki | Structure (SMILES) |
| --- | --- |
| < 1 µM | CCOc1cccc(C(=O)NC2CCN(CC(=O)N3CCN(C4CCC4)CC3)CC2)c1 [Compound 1213, N-{1-[2-(4-cyclobutylpiperazin-1-yl)-2-oxoethyl]piperidin-4-yl}-3-ethoxybenzamide] |
| < 1 µM | O=C(CC1CCCCC1)NC1CCN(CC(=O)N2CCN(C3CCC3)CC2)CC1 [Compound 1209, N-{1-[2-(4-cyclobutylpiperazin-1-yl)-2-oxoethyl]piperidin-4-yl}-2-cyclohexylacetamide] |
| < 1 µM | CC(C)c1ccc(C(=O)NC2CCN(CC(=O)N3CCN(C4CCC4)CC3)CC2)cc1 [Compound 1219, N-{1-[2-(4-cyclobutylpiperazin-1-yl)-2-oxoethyl]piperidin-4-yl}-4-isopropylbenzamide] |
| < 1 µM | O=C(NCC(F)(F)F)c1ccc(N2CCN(CC(=O)N3CCN(C4CCC4)CC3)CC2)nc1 [Compound 1180, 6-{4-[2-(4-cyclobutylpiperazin-1-yl)-2-oxoethyl]piperazin-1-yl}-N-(2,2,2-trifluoroethyl) nicotinamide] |
| < 1 µM | O=C(NC1CC1)c1ccc(N2CCN(CC(=O)N3CCN(C4CCC4)CC3)CC2)cc1 [Compound 1138, 4-{4-[2-(4-cyclobutylpiperazin-1-yl)-2-oxoethyl]piperazin-1-yl}-N-cyclopropylbenzamide] |
| < 1 µM | O=C(NC1CCCC1)c1ccc(N2CCN(CC(=O)N3CCN(C4CCC4)CC3)CC2)cc1 [Compound 1141, 4-{4-[2-(4-cyclobutylpiperazin-1-yl)-2-oxoethyl]piperazin-1-yl}-N-cyclopentylbenzamide] |

same assay, conditions: assay of Example 7; symbol * in column headed Ki of Table II; read-out: Ki

| Ki | Structure (SMILES) |
| --- | --- |
| < 1 µM | Cc1cc(N2CCN(CC(=O)N3CCN(C4CCCCC4)CC3)CC2)ccc1Cl [Compound 350, 1-(4-chloro-3-methylphenyl)-4-[2-(4-cyclohexylpiperazin-1-yl)-2-oxoethyl]piperazine] |
| < 1 µM | O=C(CN1CCN(c2ccc(-c3ccc(F)c(Cl)c3)cc2)CC1)N1CCN(C2CCC2)CC1 [Compound 297, 1-(3′-chloro-4′-fluorobiphenyl-4-yl)-4-[2-(4-cyclobutylpiperazin-1-yl)-2-oxoethyl]piperazine] |
| < 1 µM | COc1cc(N2CCN(CC(=O)N3CCN(C(C)C)CC3)CC2)ccc1Br [Compound 336, 1-(4-bromo-3-methoxyphenyl)-4-[2-(4-isopropylpiperazin-1-yl)-2-oxoethyl]piperazine] |
| < 1 µM | CC(=O)c1ccc(N2CCN(CC(=O)N3CCN(C4CCC4)CC3)CC2)c2ccccc12 [Compound 310, 1-(4-{4-[2-(4-cyclobutylpiperazin-1-yl)-2-oxoethyl]piperazin-1-yl}-1-naphthyl)ethanone] |
| < 1 µM | O=C(CN1CCN(c2cccc(Br)c2)CC1)N1CCN(C2CCC2)CC1 [Compound 293, 1-(3-bromophenyl)-4-[2-(4-cyclobutylpiperazin-1-yl)-2-oxoethyl]piperazine] |
| < 1 µM | O=C(CN1CCN(c2cccc(Cl)c2)CC1)N1CCN(C2CCC2)CC1 [Compound 301, 1-(3-chlorophenyl)-4-[2-(4-cyclobutylpiperazin-1-yl)-2-oxoethyl]piperazine] |
| < 1 µM | O=C(CN1CCN(c2ccc(Cl)cc2)CC1)N1CCN(C2CCCCC2)CC1 [Compound 357, 1-(4-chlorophenyl)-4-[2-(4-cyclohexylpiperazin-1-yl)-2-oxoethyl]piperazine] |
| < 1 µM | O=C(Cc1c(F)cccc1Cl)N1CCN(CC(=O)N2CCN(C3CCC3)CC2)CC1 [Compound 382, 1-[(2-chloro-6-fluorophenyl)acetyl]-4-[2-(4-cyclobutylpiperazin-1-yl)-2-oxoethyl]piperazine] |
